The text below walks through data of PMC6030096, “Synergy of Physico-chemical and Biological Experiments for Developing a Cyclooxygenase-2 Inhibitor” (Scientific Reports, 2018).

The target in experiment [1] is T1, COX-1 (Ovis aries, UniProt P05979).
T1 construct: purchased Cayman Chemical Co. 560131
T1 sequence (P05979 25-600): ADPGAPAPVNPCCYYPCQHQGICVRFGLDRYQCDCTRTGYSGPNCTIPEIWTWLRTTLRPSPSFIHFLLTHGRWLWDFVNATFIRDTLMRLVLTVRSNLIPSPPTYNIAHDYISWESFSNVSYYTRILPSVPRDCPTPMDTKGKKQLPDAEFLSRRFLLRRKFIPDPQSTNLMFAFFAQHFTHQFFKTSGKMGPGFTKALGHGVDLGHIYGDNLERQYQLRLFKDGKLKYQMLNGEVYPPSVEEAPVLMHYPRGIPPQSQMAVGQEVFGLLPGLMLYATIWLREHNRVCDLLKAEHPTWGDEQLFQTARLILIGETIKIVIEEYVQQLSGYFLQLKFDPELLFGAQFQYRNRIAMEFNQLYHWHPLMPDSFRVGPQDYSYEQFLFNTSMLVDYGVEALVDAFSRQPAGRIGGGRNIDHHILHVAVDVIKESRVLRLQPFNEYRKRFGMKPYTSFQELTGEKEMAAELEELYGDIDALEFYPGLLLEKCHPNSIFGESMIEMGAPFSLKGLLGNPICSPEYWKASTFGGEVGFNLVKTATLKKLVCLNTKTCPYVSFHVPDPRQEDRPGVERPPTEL
Description: Isothermal titration calorimetry with COX-1. The conditions noted are these: ITC. It is filed as binding. How it is done: 100 µM solution of the compound in HPLC grade DMSO and Tris-HCl buffer (1:9) (pH 7.4) was prepared. 5 µL of enzyme was diluted with 500 µL Tris-HCl buffer. 19 consecutive injections of 2 µL each at 120 s interval were made to the enzyme solution taken in the sample cell. The heat change in the cell was determined. The control titrations for determining the background heat (that was subtracted from the main experiment) were performed by taking buffer solution in the cell and making successive additions of the titrant. The titration heat profiles and the binding parameters were read with Microcal software origin 7.0.
In general terms: In ITC the heat of successive injections is recorded.

The target of experiment [2] is T2, COX-1 (Homo sapiens, UniProt P23219).
T2 construct: endogenous in cells; host or cells: human whole blood (heparinized, venipuncture)
Description: Human whole blood assay for COX-1 (A23187 stimulated TxB2). Type of experiment: cell-based. From the text:
(§1) The use of human blood for the whole blood assay was duly approved by the institutional ethical committee of the University for human subjects. Production of prostaglandin PGE2 during lipopolysaccharide (LPS) stimulated whole blood was used to quantify COX-2 inhibitory activity whereas calcium ionophore (A23187) stimulated thromboxane (TxB2) production was used to measure COX-1 inhibitory activity of the compounds.
Approval for the use of human blood was taken from the institutional ethical committee of Guru Nanak Dev University Amritsar and informed consent was obtained from the subject[32],[33]. All experiments were performed in accordance with the relevant guidelines and regulations. By venipuncture, the blood sample was collected in heparinized tubes. […] Each sample in duplicate was assayed for TxB2 (the breakdown product of TxA2) using TXB2 Express ELISA kit (Cayman Chemicals, Ann Arbor, MI) by the reported protocol.

Experiment [3] has as its system carrageenan-induced inflammation in rat. Description: Carrageenan induced paw inflammation (pretreatment).
Description: In-vivo biological experiments were performed on male wistar rat (250–300 g). […] The animals were given free supply of food and water. The use of animals for the biological studies was duly permitted by the institutional animal ethical committee (IAEC) of the University. […] All the doses were administered intraperitoneally.
The paw thickness of the animals was measured with vernier callipre at 1 h intervals up to the 5th hour and compared with the control.
For anti-inflammatory activity, carageenan induced paw edema model with three groups of animals, 5 in each, were used[22]. All the drugs were administered intraperitoneally.
Another experiment concerns the target T3, COX-2 (Homo sapiens, UniProt P35354).
T3 sequence (P35354 18-604): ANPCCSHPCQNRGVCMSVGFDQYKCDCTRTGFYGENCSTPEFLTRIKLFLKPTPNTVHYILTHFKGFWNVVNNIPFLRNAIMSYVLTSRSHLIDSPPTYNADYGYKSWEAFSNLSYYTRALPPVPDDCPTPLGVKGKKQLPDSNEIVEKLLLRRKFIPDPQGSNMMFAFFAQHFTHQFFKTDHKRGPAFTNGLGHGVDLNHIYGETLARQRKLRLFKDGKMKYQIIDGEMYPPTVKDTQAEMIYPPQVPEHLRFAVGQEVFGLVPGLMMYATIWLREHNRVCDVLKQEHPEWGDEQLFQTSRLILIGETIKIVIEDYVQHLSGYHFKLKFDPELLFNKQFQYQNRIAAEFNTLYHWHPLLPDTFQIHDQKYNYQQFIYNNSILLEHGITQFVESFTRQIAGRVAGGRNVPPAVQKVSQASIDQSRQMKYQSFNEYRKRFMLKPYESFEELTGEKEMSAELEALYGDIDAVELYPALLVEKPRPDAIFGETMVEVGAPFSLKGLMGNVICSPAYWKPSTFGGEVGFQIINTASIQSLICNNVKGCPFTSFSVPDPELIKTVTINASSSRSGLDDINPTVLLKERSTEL
Description: Human whole blood assay for COX-2 (LPS stimulated PGE2). Type of experiment: cell-based. The arrangement: endogenous in cells; host or cells: human whole blood, aspirin-pretreated, LPS-stimulated. How it is done:
as §1
COX-2 assay was performed by inactivating COX-1 with 50 µL aspirin (10 µg/mL) per 400 µL of blood sample.

Experiment [4] concerns the target T4, 5-LOX (Soybean lipoxygenase) (Glycine max, UniProt P08170).
T4 construct: purchased Cayman Chemical Co. 760700
T4 sequence (P08170 1-839): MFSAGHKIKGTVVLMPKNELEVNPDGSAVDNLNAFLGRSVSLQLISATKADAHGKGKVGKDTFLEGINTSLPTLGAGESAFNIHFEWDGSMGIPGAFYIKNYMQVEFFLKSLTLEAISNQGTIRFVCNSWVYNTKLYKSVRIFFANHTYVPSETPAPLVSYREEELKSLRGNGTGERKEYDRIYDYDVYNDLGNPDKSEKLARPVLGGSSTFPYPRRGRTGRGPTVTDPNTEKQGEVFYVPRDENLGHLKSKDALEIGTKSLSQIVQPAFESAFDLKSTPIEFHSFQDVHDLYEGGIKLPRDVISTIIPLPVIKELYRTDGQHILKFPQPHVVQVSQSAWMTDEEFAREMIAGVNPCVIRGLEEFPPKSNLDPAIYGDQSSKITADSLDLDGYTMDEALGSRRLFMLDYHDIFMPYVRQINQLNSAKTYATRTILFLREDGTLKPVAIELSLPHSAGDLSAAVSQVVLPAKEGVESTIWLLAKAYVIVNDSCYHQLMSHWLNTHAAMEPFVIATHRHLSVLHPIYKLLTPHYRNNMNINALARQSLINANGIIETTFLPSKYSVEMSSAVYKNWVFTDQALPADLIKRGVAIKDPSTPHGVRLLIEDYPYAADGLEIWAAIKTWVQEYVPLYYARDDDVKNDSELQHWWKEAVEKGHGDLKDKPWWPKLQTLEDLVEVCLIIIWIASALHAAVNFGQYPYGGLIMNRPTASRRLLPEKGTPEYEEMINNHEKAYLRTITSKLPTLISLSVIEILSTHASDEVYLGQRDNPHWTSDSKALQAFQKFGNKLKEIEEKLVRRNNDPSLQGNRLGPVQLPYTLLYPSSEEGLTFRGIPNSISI
Description: Lipoxygenase inhibitory activity assay. Type of experiment: biochemical. How it is done: 10 µL of the compound of each concentration was mixed with 90 µL 5-LOX (Soybean lipoxygenase in assay buffer) in the specified wells of the 96-well plate. Two wells containing assay buffer and AA acted as blanks whereas four wells, each carrying enzyme and AA, were positive controls. 10 µL AA was added to each test well and the plate was shaken for 5 min. Chromogen (100 µL) was added to each well and the plate was again shaken for 5 min. The absorbance of each well at 490 nm was recorded on microplate scanning spectrophotometer. As per the protocol given with the assay kit, the 5-LOX inhibitory activity for each compound at each concentration was determined using the mean of the two values (duplicate experiments) with deviation <5%.

The target of experiment [5] is T1, COX-1. The note with it: previously reported compounds 1 and 2; cited from earlier work.
Experiment [6] deals with acetic acid induced writhings in rat. Description: Acetic acid induced writhing (analgesic activity). The note with it: ip.
Description: In-vivo biological experiments were performed on male wistar rat (250–300 g). […] The animals were given free supply of food and water. […] Acetic acid induced algesia model and carragennan induced inflammatory model were used for these studies. […] All the doses were administered intraperitoneally.
Analgesic activity was studied using acetic acid induced writhing. Animals in 13 groups, each consisting of 5 animals, were used. Intraperitoneal administration of 0.6% acetic acid induced abdominal writhings that were characterized by arching of back, extension of hind limbs and contraction of abdominal musculature[36]. […] All the drugs were administered intraperitoneally.
The test system of experiment [7] is carrageenan induced paw edema. Description: Carrageenan induced paw edema, effect on pre-existing inflammation. It is filed as in vivo, rat. The conditions noted are these: 10 mg kg^−1 ip 60 min after carrageenan. How it is done:
Paw thickness (mm) was used as an index of inflammation and measured at 30 min, 1 h, 2 h, 3 h, 4 h, 5 h, 6 h, 8 h, and 24 h after the carrageenan injection.
Paw thickness (mm) was used as index of inflammation and measured at 30 min, 1 h, 2 h, 3 h, 4 h, 5 h, 6 h, 8 h, and 24 h after the carrageenan injection.
On the technique in general: The carrageenan paw model is a standard test of acute inflammation.

Usually IC50 stands for the concentration at which inhibition is half-maximal.

T2 sequence (P23219 24-599): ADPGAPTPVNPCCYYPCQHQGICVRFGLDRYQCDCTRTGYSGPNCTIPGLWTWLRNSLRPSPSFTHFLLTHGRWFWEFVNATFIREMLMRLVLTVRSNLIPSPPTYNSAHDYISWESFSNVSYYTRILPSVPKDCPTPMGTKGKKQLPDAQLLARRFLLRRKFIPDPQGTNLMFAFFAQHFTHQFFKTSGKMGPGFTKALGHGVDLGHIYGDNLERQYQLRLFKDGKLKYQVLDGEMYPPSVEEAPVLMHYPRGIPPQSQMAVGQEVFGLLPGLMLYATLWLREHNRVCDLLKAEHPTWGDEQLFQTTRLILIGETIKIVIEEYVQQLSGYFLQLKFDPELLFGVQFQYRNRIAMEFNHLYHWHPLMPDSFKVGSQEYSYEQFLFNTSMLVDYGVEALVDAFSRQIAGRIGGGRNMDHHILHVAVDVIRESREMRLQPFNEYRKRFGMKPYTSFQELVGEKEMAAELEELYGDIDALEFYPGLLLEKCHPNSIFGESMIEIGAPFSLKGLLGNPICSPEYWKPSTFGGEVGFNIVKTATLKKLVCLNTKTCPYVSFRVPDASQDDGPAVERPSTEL

Take `O=C1NC(=O)C(=Cc2cn(C[C@H](O)Cn3c4ccccc4c(=O)c4ccccc43)c3ccccc23)C(=O)N1` [(S)-3a]: at COX-1 [1], the TΔS was -0.829 kcal/mol, the ΔG is -4.304 kcal/mol and the ΔH was -5.134 kcal/mol. The “effect on ionophore stimulated TxB2 production” value on COX-1 [2] (1 µM) is listed as “had no effect”. Also, at COX-1 [2] (final conc 1 µM, A23187 50 µM), the “Production of TXB2, +Ca^2+ Ionophore” value came to 1.95 ± 0.01 ng/mL. Moreover, the “reduction of carrageenan induced inflammation” value in experiment [3] (10 mg kg^−1) is recorded as 25%. Further, the “effect on paw inflammation compared with indomethacin” value in experiment [3] (end of 4th and 5th hour) is “comparable to that of indomethacin”. Moreover, the “effect on carageenan induced paw inflammation (paw thickness)” value in experiment [3] (ip 30 min before carageenan, measured up to 5th hour) is “Significant decrease”. The “effect on LPS stimulated PGE2 production” value on COX-2 (1 µM) is “inhibited LPS stimulated PGE2 production”. Moreover, on COX-2 (final conc 1 µM, LPS 10 µg mL^−1), the “Production of PGE2, +LPS” value is given as 0.93 ± 0.1 ng/mL. Besides, it took 0.2 ± 0.015 µM to reach half-maximal inhibition in experiment [4] (IC50).
Take `CC1=NN(c2cccc(Cl)c2)C(=O)C1=Cc1cn(CCCOc2cc(O)c3c(=O)cc(-c4ccccc4)oc3c2)c2ccccc12` [Compound 1]: the half-maximal inhibitory concentration (IC50) on COX-1 [5] is 118 ± 5.5 µM.
For `COc1ccc2c(c1)c(CC(=O)O)c(C)n2C(=O)c1ccc(Cl)cc1` [Indomethacin, reference compound], the “effect on number of acetic acid induced writhing vs control” value in experiment [6] is given as “significantly decreased”. Moreover, in experiment [7] (after 5 h of treatment), the “effect on pre-existing paw edema (paw thickness)” value was “decrease paw edema”. Besides, the “duration of decrease in paw edema” value in experiment [7] (after 24 h of treatment) is listed as “sustained even after 24 h”.
